The subject of one data set is SR. Particulars: cited from earlier work.
Data set [1] concerns liver. Conditions: in vivo.
Data set [2] relates to cytochrome P-450 in the 2B subfamily. Conditions: mouse, in vivo; cited from earlier work.
Data set [3] relates to AhR, CAR, PXR, PPAR, LXR, SR and RXR.
The subject of another data set is AhR. Kind of data set: Aggregate nuclear receptor activity: AhR. Conditions: aggregate human NR activity, in words. The text has this:
(§1) To summarize the activity of chemicals across the NR superfamily we aggregated the ToxCast assays for genes and NR groups as follows: retinoic X receptor-like (RXR; [drawing 5]; NR2B); peroxisome proliferator-activated receptor-like (PPAR; [drawing 6]; NR1C); constitutive androstane receptor ( [drawing 7]; [drawing 8]; [drawing 9] ); pregnane X receptor ( [drawing 10]; [drawing 11] ); liver X receptor-like (LXR; [drawing 12] , FXR; NR1H); and steroid receptor-like (SR; [drawing 13] , [drawing 14] , [drawing 15] ). These are shown visually in Figure 1(a). As there were differences in the number and types of assays for each group, aggregate activity was calculated as the average potency across the assays measured by the AC50 or LEC (described in Methods). This approach aggregated NR binding, activation, agonism or antagonism results into a single assessment of activity.
(§2) All data used in this analysis are publicly available from the ToxCast website (www.epa.gov/toxcast). The analysis was conducted using the R statistical language (www.r-project.org). For each chemical [drawing 77] , and assay [drawing 78] combination we derived either the AC50 (50% maximal activity concentration) or LEC (Lowest Effective Concentration) in [drawing 79] M denoted as, [drawing 80] . All chemicals are provided in Dataset S3 and all assays are given in Dataset S1. The procedure for evaluating the quality of [drawing 81] are described in the supplementary methods (Text S1) and all assay results are provided in Dataset S2. In order to facilitate comparison across the assays the [drawing 82] were transformed by the formula, [drawing 83] where [drawing 84] represents a the potency on an ascending scale, and [drawing 85] is the maximum concentration (lowest potency) across the data set.
(§3) The aggregate NR activity [drawing 86] , where [drawing 87] , was calculated using assays [drawing 88] . The aggregate scaled NR activity score for each chemical [drawing 89] was calculated as the average concentration value across the assays, scaled by the maximum value across all chemicals using Equation 1. [drawing 90] (1)

The next data set concerns CAR. As to the kind of experiment: Aggregate nuclear receptor activity: CAR. Particulars: aggregate human NR activity, in words.
Excerpt: as §1, §2, §3

In the next data set the test system is PXR. Kind of data set: Aggregate nuclear receptor activity: PXR. More on the design: species or system human.
Excerpt: as §1, §2, §3

Data set [4] concerns PPAR. Kind of data set: Aggregate nuclear receptor activity: PPAR. Particulars: aggregate human NR activity, in words.
Excerpt: as §1, §2, §3

Data set [5] has as its system SR (steroid receptor-like). As to the kind of experiment: Aggregate nuclear receptor activity: SR. Particulars: aggregate human NR activity, in words.
Excerpt: as §1, §2, §3

Data set [6] deals with PPAR. Also noted: method as in PMID 17084873. Particulars: in rats; cited from earlier work.
Data set [7] concerns liver. As to the kind of experiment: Cancer lesion progression: 2-year chronic rat and mouse liver histopathology (ToxRefDB), lesion progression groups (LPG). Particulars: liver lesions after 2-year chronic treatment, ToxRefDB data clustered into groups I-VIII.
Another data set relates to LXR. Kind of data set: Aggregate nuclear receptor activity: LXR. Conditions: aggregate human NR activity, in words.
Excerpt: as §1, §2
The aggregate NR activity [drawing 86] , where [drawing 87] , was calculated using assays [drawing 88] . The aggregate scaled NR activity score for each chemical [drawing 89] was calculated as the average concentration value across the assays, scaled by the maximum value across all chemicals using Equation 1. [drawing 90] […]

The next data set has as its system human PXR. More on the design: method as in PMID 16565514. Particulars: cited from earlier work.
The test system of data set [8] is liver. Particulars: 2-year chronic feeding studies in both rat and mouse; ToxRefDB ref 5; cited from earlier work.
The mark [9] stands for this setting: aggregate human NR activity, in words.

Where two headings read alike, the source gives them in different places.

Data on 18 compounds can be found in publication PMC3038857, “Using Nuclear Receptor Activity to Stratify Hepatocarcinogens” (PLoS ONE, 2011).

Consider `CNC(=O)Oc1cccc2ccccc12` [Carbaryl, naphthalen-1-yl methylcarbamate], for which, in the data set with SR, the SR activity entry was “activity”.

Take `CCNC(=O)NC(=O)/C(C#N)=N/OC` [Cymoxanil, (2E)-2-cyano-N-(ethylcarbamoyl)-2-(methoxyimino)acetamide]: the “lesion progression group (LPG)” value in the data set on liver [1] was “Cymoxanil”.

As for `CC(C1CC1)C(O)(Cn1cncn1)c1ccc(Cl)cc1` (stereo not shown) [Cyproconazole, 2-(4-chlorophenyl)-3-cyclopropyl-1-(1H-1,2,4-triazol-1-yl)butan-2-ol], the “expression of a cytochrome P-450 in the 2B subfamily” value in [2] is “induce expression”.

Turning to `CCCCOC(=O)c1ccccc1C(=O)OCCCC` [Dibutyl phthalate, dibutyl phthalate], the “overall NR activity” value in [3] was “low NR activity”.

In the case of `COC(=O)C(C)Oc1ccc(Oc2ccc(Cl)cc2Cl)cc1` (stereo not shown) [Diclofop-methyl, methyl 2-[4-(2,4-dichlorophenoxy)phenoxy]propanoate], in the data set with AhR, the “activity with AhR” value was “some activity”. For the same compound, in the data set on CAR, the “activity with CAR” value was “some activity”. Moreover, the “activity with PXR” value in the data set with PXR (setting [9]) is “some activity”. In the data set on PPAR [4], the “activity with PPAR” value is “most consistently active”. Besides, in data set [5], the “activity with SR” value is reported as “some activity”. For the same compound, in the data set on PPAR [6], the PPAR activity result is “active”. The “lesion progression group (LPG)” value in the data set on liver [7] was “I”.

Regarding `CC[C@H](C)[C@H]1O[C@]2(C=C[C@@H]1C)C[C@@H]1C[C@@H](C/C=C(\C)[C@@H](O[C@H]3C[C@H](OC)[C@@H](O[C@H]4C[C@H](OC)[C@@H](NC)[C@H](C)O4)[C@H](C)O3)[C@@H](C)/C=C/C=C3\CO[C@@H]4[C@H](O)C(C)=C[C@@H](C(=O)O1)[C@]34O)O2.O=C(O)c1ccccc1` [Emamectin benzoate, (2aE,4E,5\S,6S,6\R,7S,8E,11R,13S,15S,17aR,20R,20aR,20bS)-20,20b-dihydroxy-5\,6,8,19-tetramethyl-6\-[(1S)-1-methylpropyl]-17-oxo-5\,6,6\,10,11,14,15,17,17a,20,20a,20b-dodecahydro-2H,7H-spiro[11,15-methanofuro[4,3,2-pq][2,6]benzodioxacyclooctadecine-13,2\-pyran]-7-yl 2,6-dideoxy-3-O-methyl-4-O-[2,4,6-trideoxy-3-O-methyl-4-(methylammonio)-a-L-arabino-hexopyranosyl]-a-L-arabino-hexopyranoside benzoate], the “lesion progression group (LPG)” value with liver [1] is reported as “Emamectin benzoate”.

With `N#Cc1c[nH]cc1-c1cccc2c1OC(F)(F)O2` [Fludioxonil, 4-(2,2-difluoro-1,3-benzodioxol-4-yl)-1H-pyrrole-3-carbonitrile], the “activity with PXR” value in the data set with PXR (setting [9]) was “consistently active”. In addition, in the data set on PPAR [4], the “activity with PPAR” value is listed as “less frequently”. Further, the “activity with LXR” value with LXR is on record as “less frequently”. In addition, in data set [5], the “activity with SR” value is on record as “less frequently”.

On to `C=CCOC(Cn1ccnc1)c1ccc(Cl)cc1Cl` (stereo not shown) [Imazalil, 1-[2-(allyloxy)-2-(2,4-dichlorophenyl)ethyl]-1H-imidazole], for which the “activity with AhR” value in the data set with AhR was “some activity”. In addition, in the data set with CAR, the “activity with CAR” value is reported as “some activity”. The “activity with PXR” value with PXR (setting [9]) is “some activity”. For the same compound, in the data set with PPAR [4], the “activity with PPAR” value is “most consistently active”. Moreover, the “activity with SR” value in [5] is listed as “some activity”.

In the case of `CS(=O)(=O)c1cc(C(F)(F)F)ccc1C(=O)c1cnoc1C1CC1` [Isoxaflutole, (5-cyclopropylisoxazol-4-yl)[2-(methylsulfonyl)-4-(trifluoromethyl)phenyl]methanone], the “lesion progression group (LPG)” value in the data set on liver [1] is reported as “I”.

On to `CCOC(=O)C(C)OC(=O)c1cc(Oc2ccc(C(F)(F)F)cc2Cl)ccc1[N+](=O)[O-]` (stereo not shown) [Lactofen, 2-ethoxy-1-methyl-2-oxoethyl 5-[2-chloro-4-(trifluoromethyl)phenoxy]-2-nitrobenzoate], for which the “activity with AhR” value with AhR is recorded as “consistently active”. Besides, the “activity with CAR” value in the data set on CAR was “consistently active”. For the same compound, in the data set with PXR, the “activity with PXR” value is on record as “consistently active”. Also, the “activity with PPAR” value in the data set on PPAR [4] was “less frequently”. Further, in the data set with LXR, the “activity with LXR” value is “less frequently”. Further, in data set [5], the “activity with SR” value is “less frequently”. Further, the “lesion progression group (LPG)” value in the data set on liver [1] was “I”.

For `Cl[C@H]1[C@H](Cl)[C@@H](Cl)[C@@H](Cl)[C@H](Cl)[C@H]1Cl` [Lindane, (1r,2R,3S,4r,5R,6S)-1,2,3,4,5,6-hexachlorocyclohexane], the “activity with AhR” value in the data set with AhR is recorded as “active”. Also, the “activity with PXR” value in the data set with PXR (setting [9]) is given as “active”. For the same compound, the “lesion progression group (LPG)” value in the data set with liver [1] is recorded as “Lindane”.

Consider `CCOC(=O)CC(SP(=S)(OC)OC)C(=O)OCC` (stereo not shown) [Malathion, diethyl 2-[(dimethoxyphosphorothioyl)thio]succinate], for which the “activity with AhR” value with AhR was “some activity”. In the data set on CAR, the “activity with CAR” value is “some activity”. Further, in the data set with PXR (setting [9]), the “activity with PXR” value is “some activity”. In the data set on PPAR [4], the “activity with PPAR” value is given as “most consistently active”. For the same compound, the “activity with SR” value in [5] was “some activity”. In addition, the SR activity result in the data set with SR is “known SR activity”.

For the compound `CC(C)Oc1cc(-n2nc(C(C)(C)C)oc2=O)c(Cl)cc1Cl` [Oxadiazon, 5-tert-butyl-3-(2,4-dichloro-5-isopropoxyphenyl)-1,3,4-oxadiazol-2(3H)-one], in the data set on AhR, the “activity with AhR” value is on record as “consistently active”. Also, in the data set on CAR, the “activity with CAR” value is listed as “consistently active”. The “activity with PXR” value in the data set with PXR (setting [9]) was “consistently active”. Besides, the “activity with PPAR” value in the data set with PPAR [4] is “less frequently”. In the data set with LXR, the “activity with LXR” value is “less frequently”. Further, the “activity with SR” value in data set [5] is recorded as “less frequently”. In addition, the “lesion progression group (LPG)” value with liver [1] is “I”. The “human PXR activity” value in the data set on human PXR was “known human PXR activity”.

For `CC1(C)C(C=C(Cl)Cl)C1C(=O)OCc1cccc(Oc2ccccc2)c1` (stereo not shown) [Permethrin, [3-(phenyloxy)phenyl]methyl 3-(2,2-dichloroethenyl)-2,2-dimethylcyclopropanecarboxylate], in the data set on AhR, the “activity with AhR” value is “active”. In addition, in the data set with CAR, the “activity with CAR” value is on record as “most consistently active”. In the data set with PXR (setting [9]), the “activity with PXR” value is recorded as “active”.

In the case of `CCCN(CCOc1c(Cl)cc(Cl)cc1Cl)C(=O)n1ccnc1` [Prochloraz, N-propyl-N-[2-(2,4,6-trichlorophenoxy)ethyl]-1H-imidazole-1-carboxamide], the “activity with CAR” value in the data set on CAR is “most consistently active”. The “activity with PXR” value in the data set with PXR (setting [9]) was “active”.

With `C#CC(C)(C)NC(=O)c1cc(Cl)cc(Cl)c1` [Propyzamide, 3,5-dichloro-N-(1,1-dimethylprop-2-yn-1-yl)benzamide], the “activity with AhR” value in the data set on AhR was “active”. In addition, the “activity with CAR” value in the data set with CAR is recorded as “most consistently active”. For the same compound, the “activity with PXR” value in the data set on PXR (setting [9]) is listed as “active”.

Take `CCOP(=S)(Oc1cnc(C(C)(C)C)nc1)OC(C)C` (stereo not shown) [Tebupirimfos, O-(2-tert-butylpyrimidin-5-yl) O-ethyl O-isopropyl thiophosphate]: the “liver injury (liver histopathology)” value with liver [8] was “negative for any liver injury”.

As to `C=CC1(C)OC(=O)N(c2cc(Cl)cc(Cl)c2)C1=O` (stereo not shown) [Vinclozolin, 3-(3,5-dichlorophenyl)-5-methyl-5-vinyl-1,3-oxazolidine-2,4-dione], the “activity with AhR” value with AhR is listed as “some activity”. In addition, the “activity with PXR” value with PXR was “some activity”. For the same compound, the “activity with PPAR” value in the data set on PPAR [4] is given as “most consistently active”. Besides, the “activity with SR” value in [5] was “some activity”. For the same compound, the “lesion progression group (LPG)” value in the data set with liver [1] was “I”. Also, the SR activity result with SR was “known SR active”.
